What was measured:
Surinam grass = test: Test C pre-/postemergence herbicide test; type: in vivo, Urochloa decumbens
Text: (§1) Seeds of plant species selected from bermudagrass (Cynodon dactylon (L.) Pers.), Surinam grass (Urochloa decumbens (Staph) R. D. Webster, previously named Brachiaria decumbens Stapf), cocklebur (Xanthium strumarium L.), corn (Zea mays L.), large crabgrass (Digitaria sanguinalis (L.) Scop.), woolly cupgrass (Eriochloa villosa (Thunb.) Kunth), giant foxtail (Setaria faberi Herrm.), goosegrass (Eleusine indica (L.) Gaertn.), johnsongrass (Sorghum halepense (L.) Pers.), kochia (Kochia scoparia (L.) Schrad.), lambsquarters (Chenopodium album L.), morningglory (Ipomoea coccinea L.), eastern black nightshade (Solanum ptycanthum Dunal), yellow nutsedge (Cyperus esculentus L.), pigweed (Amaranthus retroflexus L.), common ragweed (Ambrosia elatior L.), soybean (Glycine max (L.) Merr.), common (oilseed) sunflower (Helianthus annuus L.) and velvetleaf (Abutilon theophrasti Medik.) were planted and treated preemergence with test chemicals formulated in a non-phytotoxic solvent mixture which included a surfactant.
(§2) At the same time, plants selected from these crop and weed species and also winter barley (Hordeum vulgare L.), blackgrass (Alopecurus myosuroides Huds.), canarygrass (Phalaris minor Retz.), chickweed (Stellaria media (L.) Vill.), downy bromegrass (Bromus tectorum L.), green foxtail (Setaria viridis (L.) Beauv.), Italian ryegrass (Lolium multiflorum Lam.), wheat (Triticum aestivum L.), wild oat (Avenafatua L.) and windgrass (Apera spica-venti (L.) Beauv.) were treated with postemergence applications of some of the test chemicals formulated in the same manner. Plants ranged in height from 2 to 18 cm (1- to 4-leaf stage) for postemergence treatments. Plant species in the flooded paddy test consisted of rice (Oryza sativa), smallflower umbrella sedge (Cyperus difformis L.), ducksalad (Heteranthera limosa (Sw.) Willd.) and barnyardgrass (Echinochloa crus-galli (L.) Beauv.) grown to the 2-leaf stage for testing. Treated plants and controls were maintained in a greenhouse for 12 to 14 days, after which time all species were compared to controls and visually evaluated. Plant response ratings, summarized in Table C, are based on a scale of 0 to 100 where 0 is no effect and 100 is complete control. A dash (-) response means no test result.

large crabgrass = test: Test C pre-/postemergence herbicide test; type: in vivo, Digitaria sanguinalis
Text: as §1, §2

goosegrass = test: Test C pre-/postemergence herbicide test; type: in vivo, Eleusine indica
Text: as §1, §2

johnsongrass = test: Test C pre-/postemergence herbicide test; type: in vivo, Sorghum halepense
Text: as §1, §2

kochia = test: Test C pre-/postemergence herbicide test; type: in vivo, Kochia scoparia
Text: as §1, §2

pigweed = test: Test C pre-/postemergence herbicide test; type: in vivo, Amaranthus retroflexus
Text: as §1, §2

soybean = test: Test C pre-/postemergence herbicide test; type: in vivo, Glycine max
Text: as §1, §2

velvetleaf = test: Test C pre-/postemergence herbicide test; type: in vivo, Abutilon theophrasti
Text: as §1, §2

rice = test: Test C flooded paddy test; type: in vivo, Oryza sativa; conditions: for Plant response rating, Rice: 500 g ai/ha, visual rating after 12 to 14 days
Outline: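 Injury scored visually against controls on a 0 (no effect) to 100 (complete control) scale, 12 to 14 days after treatment in greenhouse. Flooded paddy plants treated at 2-leaf stage; postemergence plants at 1- to 4-leaf stage, 2 to 18 cm tall.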

[1] = 31 g ai/ha, preemergence, scale 0 to 100
[2] = 125 g ai/ha, scale 0 (no effect) to 100 (complete control), visual, 12 to 14 days, preemergence
[3] = Postemergence, 250 g ai/ha, scale 0 to 100, 0 no effect, 100 complete control
[4] = postemergence, 125 g ai/ha, scale 0 to 100
[5] = postemergence, 62 g ai/ha, scale 0 to 100
[6] = 125 g ai/ha, scale 0 to 100 (0 no effect, 100 complete control)
[7] = 250 g ai/ha, scale of 0 to 100, 0 is no effect, 100 is complete control
[8] = scale 0 to 100 (0 no effect, 100 complete control)
[9] = 62 g ai/ha, preemergence, scale 0 to 100
[10] = 250 g ai/ha, scale 0-100, preemergence
[11] = 500 g ai/ha, scale 0 to 100 (0 no effect, 100 complete control), visual, 12 to 14 days, preemergence

C=Cn1nc(C(C)(C)C)cc1C(=O)Nc1cccc(C(C)=NO)c1 [Compound 114]
30: Plant response rating, Johnsongrass (johnsongrass; [2]) | Plant response rating, Velvetleaf (velvetleaf; [2])
80: Plant response rating, Goosegrass (goosegrass; [2]) | Plant response rating, Kochia (kochia; [4]) | Plant response rating, Kochia (kochia; [5]) | Plant response rating, Velvetleaf (velvetleaf; [3])
100: Plant response rating, Crabgrass, Large (large crabgrass; [1]) | Plant response rating (0 = no effect, 100 = complete control), Crabgrass, Large (large crabgrass; 62 g ai/ha, preemergence) | Plant response rating, Crabgrass, Large (large crabgrass; [2]) | Plant response rating, Crabgrass, Large (large crabgrass; 250 g ai/ha, scale 0 to 100 (0 no effect, 100 complete control), visual, 12 to 14 days, preemergence) | Plant response rating, Crabgrass, Large (large crabgrass; [3]) | Plant response rating, Crabgrass, Large (large crabgrass; [4]) | Plant response rating, Kochia (kochia; [3]) | Plant response rating (0 = no effect, 100 = complete control), Pigweed (pigweed; 62 g ai/ha, preemergence) | Plant response rating, Pigweed (pigweed; [2]) | Plant response rating, Pigweed (pigweed; [3]) | Plant response rating, Pigweed (pigweed; [4]) | Plant response rating, Pigweed (pigweed; [5])
60: Plant response rating, Goosegrass (goosegrass; [4]) | Plant response rating, Goosegrass (goosegrass; [5]) | Plant response rating, Soybean (soybean; [1]) | Plant response rating, Velvetleaf (velvetleaf; [5])
10: Plant response rating, Surinam Grass (Surinam grass; [1]) | Plant response rating (0 = no effect, 100 = complete control), Surinam Grass (Surinam grass; 62 g ai/ha, preemergence) | Plant response rating, Surinam Grass (Surinam grass; [2]) | Plant response rating, Surinam Grass (Surinam grass; [4]) | Plant response rating, Surinam Grass (Surinam grass; [5])
40: Plant response rating (0 = no effect, 100 = complete control), Goosegrass (goosegrass; 62 g ai/ha, preemergence)
70: Plant response rating, Goosegrass (goosegrass; [3]) | Plant response rating, Johnsongrass (johnsongrass; [3]) | Plant response rating, Johnsongrass (johnsongrass; [4]) | Plant response rating, Johnsongrass (johnsongrass; [5]) | Plant response rating (0 = no effect, 100 = complete control), Soybean (soybean; 62 g ai/ha, preemergence) | Plant response rating, Soybean (soybean; [3]) | Plant response rating, Soybean (soybean; [4]) | Plant response rating, Soybean (soybean; [5]) | Plant response rating, Velvetleaf (velvetleaf; [4])
20: Plant response rating, Surinam Grass (Surinam grass; [3]) | Plant response rating, Crabgrass, Large (large crabgrass; [5]) | Plant response rating, Goosegrass (goosegrass; [1]) | Plant response rating (0 = no effect, 100 = complete control), Johnsongrass (johnsongrass; 62 g ai/ha, preemergence)
0: Plant response rating, Johnsongrass (johnsongrass; [1]) | Plant response rating, Pigweed (pigweed; [1]) | Plant response rating, Velvetleaf (velvetleaf; [1])
90: Plant response rating, Kochia (kochia; [1]) | Plant response rating (0 = no effect, 100 = complete control), Kochia (kochia; 62 g ai/ha, preemergence) | Plant response rating, Kochia (kochia; [2])

C=Cn1nc(C(C)(C)C)cc1C(=O)Nc1cccc(C(C)=O)c1 [Compound 127]
20: Rice plant response rating (rice; 62 g ai/ha, scale 0 to 100 (0 no effect, 100 complete control))
25: Rice plant response rating (rice; [6]) | Rice plant response rating (rice; [7]) | Plant response rating, Rice (rice; [8])

Cc1nn(C(C)(C)C)nc1C(=O)Nc1cccc(C(=O)N2CC=CC2)c1 [Compound 393]
90: Plant response rating, Pigweed (pigweed; [9])
75: Rice plant response rating (rice; [6])
0: Plant response rating, Kochia (kochia; [9])
80: Rice plant response rating (rice; [7])
100: Plant response rating (0 = no effect, 100 = complete control), Crabgrass, Large (large crabgrass; 125 g ai/ha, preemergence) | Plant response rating, Crabgrass, Large (large crabgrass; [10]) | Plant response rating, Crabgrass, Large (large crabgrass; [11]) | Plant response rating (0 = no effect, 100 = complete control), Goosegrass (goosegrass; 125 g ai/ha, preemergence) | Plant response rating, Goosegrass (goosegrass; [10]) | Plant response rating, Goosegrass (goosegrass; [11]) | Plant response rating (0 = no effect, 100 = complete control), Johnsongrass (johnsongrass; 125 g ai/ha, preemergence) | Plant response rating, Johnsongrass (johnsongrass; [10]) | Plant response rating, Johnsongrass (johnsongrass; [11]) | Plant response rating (0 = no effect, 100 = complete control), Kochia (kochia; 125 g ai/ha, preemergence) | Plant response rating, Kochia (kochia; [10]) | Plant response rating, Kochia (kochia; [11]) | Plant response rating (0 = no effect, 100 = complete control), Pigweed (pigweed; 125 g ai/ha, preemergence) | Plant response rating, Pigweed (pigweed; [10]) | Plant response rating, Pigweed (pigweed; [11]) | Plant response rating (0 = no effect, 100 = complete control), Velvetleaf (velvetleaf; 125 g ai/ha, preemergence) | Plant response rating, Velvetleaf (velvetleaf; [10]) | Plant response rating, Velvetleaf (velvetleaf; [11])
95: Plant response rating, Crabgrass, Large (large crabgrass; [9]) | Plant response rating, Johnsongrass (johnsongrass; [9])
45: Rice plant response rating (rice; 62 g ai/ha, scale 0 to 100)
65: Plant response rating, Velvetleaf (velvetleaf; [9])
85: Plant response rating, Goosegrass (goosegrass; [9]) | Plant response rating, Rice (rice; [8])

CCc1nn(C(C)(C)C)nc1C(=O)Nc1cccc(C(=O)N(C)CC)c1 [Compound 384]
90: Plant response rating, Kochia (kochia; [9])
100: Plant response rating, Crabgrass, Large (large crabgrass; [9]) | Plant response rating (0 = no effect, 100 = complete control), Crabgrass, Large (large crabgrass; 125 g ai/ha, preemergence) | Plant response rating, Crabgrass, Large (large crabgrass; [10]) | Plant response rating, Goosegrass (goosegrass; [10]) | Plant response rating, Johnsongrass (johnsongrass; [9]) | Plant response rating (0 = no effect, 100 = complete control), Johnsongrass (johnsongrass; 125 g ai/ha, preemergence) | Plant response rating, Johnsongrass (johnsongrass; [10]) | Plant response rating (0 = no effect, 100 = complete control), Kochia (kochia; 125 g ai/ha, preemergence) | Plant response rating, Kochia (kochia; [10]) | Plant response rating, Pigweed (pigweed; [9]) | Plant response rating (0 = no effect, 100 = complete control), Pigweed (pigweed; 125 g ai/ha, preemergence) | Plant response rating, Pigweed (pigweed; [10]) | Plant response rating, Velvetleaf (velvetleaf; [9]) | Plant response rating (0 = no effect, 100 = complete control), Velvetleaf (velvetleaf; 125 g ai/ha, preemergence) | Plant response rating, Velvetleaf (velvetleaf; [10])
95: Plant response rating (0 = no effect, 100 = complete control), Goosegrass (goosegrass; 125 g ai/ha, preemergence)
65: Rice plant response rating (rice; [6])
60: Rice plant response rating (rice; 62 g ai/ha, scale 0 to 100)
85: Plant response rating, Goosegrass (goosegrass; [9])
80: Rice plant response rating (rice; [7]) | Plant response rating, Rice (rice; [8])

CCNC(=O)c1ccc(F)c(NC(=O)c2c3c(nn2CC)C(C)(C)CC3)c1 [Compound 353]
40: Plant response rating, Rice (rice; [8])
0: Rice plant response rating (rice; 62 g ai/ha, scale 0 to 100) | Rice plant response rating (rice; [6])
20: Rice plant response rating (rice; [7])
